# Reference: US20230113037A1 (Bayer Aktiengesellschaft, priority 2019, published 2023)
# Several values for one entry are separate records, joined by “and”; a condition that tells them apart may be missing. Identical values can stand only once. Like-named read-outs stand apart in the source and are kept apart here.
# Key:
# AHR [1] = molecular target: T1, AHR (Mus musculus, UniProt P30561); experiment: In vitro assay 3: antagonism in mouse cell line (AHR transactivation, firefly luciferase reporter, kynurenic acid prestimulated); assay type: cell-based
# T1 sequence (P30561 1-848 P471L/N533S/M589L): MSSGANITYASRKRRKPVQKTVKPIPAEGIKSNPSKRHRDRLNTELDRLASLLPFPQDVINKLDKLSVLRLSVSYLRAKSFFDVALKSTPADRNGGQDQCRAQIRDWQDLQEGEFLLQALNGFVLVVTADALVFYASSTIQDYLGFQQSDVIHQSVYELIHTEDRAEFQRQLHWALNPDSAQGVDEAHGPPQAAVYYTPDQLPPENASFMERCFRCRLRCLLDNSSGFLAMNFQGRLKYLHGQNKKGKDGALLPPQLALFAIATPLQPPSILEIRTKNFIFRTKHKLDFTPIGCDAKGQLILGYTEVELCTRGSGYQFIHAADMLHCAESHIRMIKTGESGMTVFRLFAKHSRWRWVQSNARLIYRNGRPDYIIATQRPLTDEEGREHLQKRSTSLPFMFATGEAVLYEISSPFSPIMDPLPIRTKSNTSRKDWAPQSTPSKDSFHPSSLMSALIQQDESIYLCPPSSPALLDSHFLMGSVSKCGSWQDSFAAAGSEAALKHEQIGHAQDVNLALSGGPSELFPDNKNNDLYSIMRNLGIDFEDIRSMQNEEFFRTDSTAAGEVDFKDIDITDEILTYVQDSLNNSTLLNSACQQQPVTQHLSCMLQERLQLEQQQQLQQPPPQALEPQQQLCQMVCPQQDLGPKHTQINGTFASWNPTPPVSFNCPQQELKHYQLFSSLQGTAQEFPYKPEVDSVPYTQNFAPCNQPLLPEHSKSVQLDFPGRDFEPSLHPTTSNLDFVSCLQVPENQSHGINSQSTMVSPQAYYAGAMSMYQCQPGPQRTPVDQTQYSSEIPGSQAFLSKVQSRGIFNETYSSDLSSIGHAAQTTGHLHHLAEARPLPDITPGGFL
# Procedure, shortened: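 Antagonism read as reduced firefly luciferase signal (SteadyGlo) from a stably transfected AHR/DRE reporter in a mouse line prestimulated with kynurenic acid. Data normalized to controls, the full-inhibition control being cells without kynurenic acid; multiple determinations given as average or median values.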
# AHR [2] = molecular target: T2, AHR (Homo sapiens, UniProt P35869); experiment: In vitro assay 1: antagonism in human cell line (AHR transactivation, firefly luciferase reporter, kynurenic acid prestimulated); assay type: cell-based; conditions: AHR Antagonism Human IC50 [M]
# T2 construct: U87 MG glioblastoma cells (ATCC #HTB-14) endogenously expressing AHR; endogenous in cells; host or cells: U87 MG glioblastoma cells (ATCC #HTB-14)
# T2 sequence (P35869 11-848): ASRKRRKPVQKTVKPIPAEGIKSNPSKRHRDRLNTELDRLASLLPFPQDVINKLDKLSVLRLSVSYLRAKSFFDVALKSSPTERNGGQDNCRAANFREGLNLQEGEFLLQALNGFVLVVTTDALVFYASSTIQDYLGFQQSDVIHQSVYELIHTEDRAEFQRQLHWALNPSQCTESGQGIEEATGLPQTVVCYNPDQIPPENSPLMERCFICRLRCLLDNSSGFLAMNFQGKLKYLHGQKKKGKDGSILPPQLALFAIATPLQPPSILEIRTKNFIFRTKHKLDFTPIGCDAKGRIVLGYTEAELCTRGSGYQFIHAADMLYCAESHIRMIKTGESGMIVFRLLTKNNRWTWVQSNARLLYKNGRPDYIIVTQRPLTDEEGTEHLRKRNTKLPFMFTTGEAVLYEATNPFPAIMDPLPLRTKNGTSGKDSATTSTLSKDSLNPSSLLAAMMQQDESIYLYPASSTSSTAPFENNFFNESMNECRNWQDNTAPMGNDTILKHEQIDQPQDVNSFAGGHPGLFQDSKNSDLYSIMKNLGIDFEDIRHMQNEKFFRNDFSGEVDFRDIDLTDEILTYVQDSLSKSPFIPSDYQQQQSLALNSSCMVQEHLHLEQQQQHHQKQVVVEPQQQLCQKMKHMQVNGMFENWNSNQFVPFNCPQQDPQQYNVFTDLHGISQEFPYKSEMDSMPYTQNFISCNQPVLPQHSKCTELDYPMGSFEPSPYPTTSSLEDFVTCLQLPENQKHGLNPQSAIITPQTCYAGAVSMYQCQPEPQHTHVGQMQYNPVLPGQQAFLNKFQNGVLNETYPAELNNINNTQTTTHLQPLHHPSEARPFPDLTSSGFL
# Procedure, shortened: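 Antagonism measured as loss of kynurenic acid-driven firefly luciferase from DRE reporter in stably transfected U87 MG cells; constitutive Renilla signal monitors cytotoxicity. Positive/negative control normalization, staurosporine 5 μM with 150 μM kynurenic acid as inhibition control; replicates given as mean or median.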
# [3] = mouse Hepa 1c1c7 cells, 200 μM kynurenic acid, 20 hours, read-out: AHR Antagonism Mouse IC50
# [4] = Hepa 1c1c7 cells, 200 μM kynurenic acid, 20 hours, firefly luciferase reporter, read-out: AHR Antagonism Mouse IC50
IC50 (AHR [1]; [3]),IC50 (AHR [2]) [M],IC50 (AHR [1]; [4]) [nM],IC50 (AHR [2]; firefly luciferase reporter) [M],Compound,"IC50 (AHR [1]; read-out: AHR Antagonism Mouse IC50, mouse Hepa 1c1c7 cells, 200 μM kynurenic acid, 20 hours) [nM]"
66.7 nM,2.17e-08,–,–,"Cn1cc(-c2nc3c4c(F)cccc4nc(N[C@@H]4CCCCNC4=O)n3n2)cn1 [Example 244, (3R)-3-{[10-fluoro-2-(1-methyl-1H-pyrazol-4-yl)[1,2,4]triazolo[1,5-c]quinazolin-5-yl]amino}azepan-2-one]",–
–,–,133,2.72e-07,"C[C@@H](Nc1nc2c(Br)cccc2c2nc(-c3cnn(C)c3)nn12)C(=O)NCCN1CCCCC1 [Example 896, N^2-[7-bromo-2-(1-methyl-1H-pyrazol-4-yl)[1,2,4]triazolo[1,5-c]quinazolin-5-yl]-N-[2-(piperidin-1-yl)ethyl]-D-alaninamide]",–
50.4 nM,3e-08,–,–,"COc1cccc(-c2nc3c4cc(F)ccc4nc(NC4CCCNC4=O)n3n2)c1 (single isomer, unassigned) [Example 188, 3-{[9-fluoro-2-(3-methoxyphenyl)[1,2,4]triazolo[1,5-c]quinazolin-5-yl]amino}piperidin-2-one]",–
2.26 nM,1.22e-09,–,–,"CCn1cc(-c2nc3c4cccc(C(F)(F)F)c4nc(N[C@@H]4CCCCNC4=O)n3n2)cn1 [Example 675, (3R)-3-{[2-(1-ethyl-1H-pyrazol-4-yl)-7-(trifluoromethyl)[1,2,4]triazolo[1,5-c]quinazolin-5-yl]amino}azepan-2-one]",–
2.12 nM,1.54e-09,–,–,"CCc1nn(C2CC2)cc1-c1nc2c3cccc(C(F)(F)F)c3nc(N[C@@H]3CCCCNC3=O)n2n1 [Example 749, (3R)-3-{[2-(1-cyclopropyl-3-ethyl-1H-pyrazol-4-yl)-7-(trifluoromethyl)[1,2,4]triazolo[1,5-c]quinazolin-5-yl]amino}azepan-2-one]",–
84.1 nM,1.56e-07,–,–,"COc1cccc(-c2nc3c4ccccc4nc(N[C@@H](C(N)=O)[C@H](C)OCc4ccccc4)n3n2)c1 [Example 97, O-benzyl-N^2-[2-(3-methoxyphenyl)[1,2,4]triazolo[1,5-c]quinazolin-5-yl]-D-threoninamide]",–
151 nM,2.1e-08,–,–,"CCSc1cccc2c1nc(N[C@@H]1CCCCNC1=O)n1nc(-c3cnn(C)c3)nc21 [Example 769, (3R)-3-{[7-(ethylsulfanyl)-2-(1-methyl-1H-pyrazol-4-yl)[1,2,4]triazolo[1,5-c]quinazolin-5-yl]amino}azepan-2-one]",–
> 20000 nM and 12800 nM,6.34e-06,–,–,"COc1ccc(-c2nc3c4c(C5CNC5)cccc4nc(N[C@@H]4CCCCNC4=O)n3n2)cc1 [Example 647, (3R)-3-{[10-(azetidin-3-yl)-2-(4-methoxyphenyl)[1,2,4]triazolo[1,5-c]quinazolin-5-yl]amino}azepan-2-one]",–
3.46 nM,3.49e-09,–,–,"O=C1NCCNC[C@H]1Nc1nc2c(Cl)cccc2c2nc(-c3cccc(F)c3)nn12 [Example 419, (6R)-6-{[7-chloro-2-(3-fluorophenyl)[1,2,4]triazolo[1,5-c]quinazolin-5-yl]amino}-1,4-diazepan-5-one]",–
–,–,13.8,1.49e-08,"COc1ccc(-c2nc3c4ccccc4nc(N[C@H](C)C(=O)N4CCNCC4)n3n2)cc1 [Example 988, (2R)-2-{[2-(4-methoxyphenyl)[1,2,4]triazolo[1,5-c]quinazolin-5-yl]amino}-1-(piperazin-1-yl)propan-1-one-hydrogen chloride (1/1)]",–
131 nM,3.09e-08,–,–,"Cc1ccccc1-c1nc2c3ccccc3nc(NC3CCNC3=O)n2n1 (single isomer, unassigned) [Example 51, 3-{[2-(2-methylphenyl)[1,2,4]triazolo[1,5-c]quinazolin-5-yl]amino}pyrrolidin-2-one]",–
555 nM,2.26e-06,–,–,"C[C@@H](Nc1nc2ccccc2c2nc(-c3ccc(S(C)(=O)=O)cc3)nn12)C(=O)NCCN(C)C [Example 774, N-[2-(dimethylamino)ethyl]-N^2-{2-[4-(methanesulfonyl)phenyl][1,2,4]triazolo[1,5-c]quinazolin-5-yl}-D-alaninamide]",–
719 nM,1.58e-05,–,–,"COc1cccc(-c2nc3c4ccccc4nc(N[C@H](CCS(C)(=O)=O)C(N)=O)n3n2)c1 [Example 113, (2R)-2-{[2-(3-methoxyphenyl)[1,2,4]triazolo[1,5-c]quinazolin-5-yl]amino}-4-(methylsulfonyl)butanamide]",–
343 nM,2.36e-06,–,–,"COc1cccc(-c2nc3c4ccc(F)cc4nc(N[C@H]4CCCNC4=O)n3n2)c1 [Example 151, (3S)-3-{[8-fluoro-2-(3-methoxyphenyl)[1,2,4]triazolo[1,5-c]quinazolin-5-yl]amino}piperidin-2-one]",–
–,–,5040,3.54e-07,"COc1ccc(-c2nc3c4cccc(N5CCCC5=O)c4nc(N[C@@H]4CCCCNC4=O)n3n2)cc1 [Example 1001, (3R)-3-{[2-(4-methoxyphenyl)-7-(2-oxopyrrolidin-1-yl)[1,2,4]triazolo[1,5-c]quinazolin-5-yl]amino}azepan-2-one]",–
3.08 nM,9.02e-09,–,–,"Cc1cc(-c2nc3c4ccccc4nc(N[C@@H]4CCCCNC4=O)n3n2)c(C)n1C [Example 606, (3R)-3-{[2-(1,2,5-trimethyl-H-pyrrol-3-yl)[1,2,4]triazolo[1,5-c]quinazolin-5-yl]amino}azepan-2-one]",–
0.993 nM,7.6e-10,–,–,"CC[C@@H](Nc1nc2ccccc2c2nc(-c3ccc(OC)cc3)nn12)C(N)=O [Example 379, (2R)-2-{[2-(4-methoxyphenyl)[1,2,4]triazolo[1,5-c]quinazolin-5-yl]amino}butanamide]",–
60.7 nM,9.98e-08,–,–,"O=C1NCC[C@H]1Nc1nc2ccccc2c2nc(-c3cccc(OC(F)(F)F)c3)nn12 [Example 310, (3R)-3-({2-[3-(trifluoromethoxy)phenyl][1,2,4]triazolo[1,5-c]quinazolin-5-yl}amino)pyrrolidin-2-one]",–
5.53 nM,6.43e-09,–,–,CCn1cc(-c2nc3c4ccccc4nc(N[C@@H]4CCCCNC4=O)n3n2)cn1 [Example 67],–
380 nM,2.08e-08,–,–,"COc1ccc(-c2nc3c4ccccc4nc(N[C@H]4CCNC4=O)n3n2)cc1 [Example 40, (3S)-3-{[2-(4-methoxyphenyl)[1,2,4]triazolo[1,5-c]quinazolin-5-yl]amino}pyrrolidin-2-one]",–
–,–,5550,4.23e-07,CCSc1cccc2c1nc(N[C@@H]1CNCCNC1=O)n1nc(-c3cnn(C)c3)nc21 [Example 938],–
1.51 nM,1.02e-08,–,–,"N#Cc1cccc(-c2nc3c4ccccc4nc(N[C@@H]4CCCCNC4=O)n3n2)c1 [Example 381, 3-(5-{[(3R)-2-oxoazepan-3-yl]amino}[1,2,4]triazolo[1,5-c]quinazolin-2-yl)benzonitrile]",–

Compound,IC50 (AHR [1]; [3]),IC50 (AHR [2]) [M],IC50 (AHR [1]; [4]) [nM],IC50 (AHR [2]; firefly luciferase reporter) [M],"IC50 (AHR [1]; read-out: AHR Antagonism Mouse IC50, mouse Hepa 1c1c7 cells, 200 μM kynurenic acid, 20 hours) [nM]"
"O=C1NCCCC[C@H]1Nc1nc2ccccc2c2nc(-c3cc(C(F)(F)F)ccn3)nn12 [Example 363, (3R)-3-({2-[4-(trifluoromethyl)pyridin-2-yl][1,2,4]triazolo[1,5-c]quinazolin-5-yl}amino)azepan-2-one]",–,3.5e-08,–,–,10.7
